For series [1], the target named is Programmed cell death 1 ligand 1 (Homo sapiens) (UniProt Q9NZQ7). Put plainly: Inhibition of human PD-L1 overexpressed in RKO cells assessed as reduction in membrane activity cocultured for 48 hrs by flow cytometry analysis. Format: cell-based.
Series [2] shares this target. Nature of the series: Induction of human PD-L1 degradation expressed in MC38 cells at 10 uM cocultured for 72 hrs by Western blotting analysis. Format: cell-based.
Series [3] relates to RKO. Nature of the series: Cytotoxicity against human RKO cells over expressing human PD-L1 at 50 uM. Format: toxicity, cell-based.
Series [4] is described as follows: Partition coefficient, logD of compound in 1-octanol and phosphate buffer at pH 7.4 incubated for 1 hr under shaking condition by HPLC analysis. The series is classed as physicochemical. The conditions noted are these: 1-octanol/phosphate buffer, pH 7.4.
For series [5], the system named is Jurkat. Nature of the series: Cytotoxicity against human Jurkat cells assessed as cell growth inhibition incubated for 48 hrs by MTT assay. The series is classed as functional, cell-based.
Series [6] in a line: Cytotoxicity against human Jurkat T cells assessed as cell viability at 10 uM incubated for 48 hrs by MTT assay. The series is classed as toxicity, cell-based. The conditions noted are these: read-out: Activity.
A short description of series [7]: Upregulation of IFN-gamma secretion in human CD4+ve Th cells cocultured with DC cells incubated for 120 hrs by ELISA. The series is classed as functional.
The nature of series [8]: AUClast in CD-1 mouse at 10 mg/kg, ig measured upto 24 hrs by UPLC analysis. Format: ADME, organism-based. Set-up: dose 10 mg/kg, time < 24 hrs, route ig. The conditions noted are these: in vivo, po.
In series [9] the target is T1, Programmed cell death protein 1/Programmed cell death 1 ligand 1 (Homo sapiens, UniProt Q9NZQ7). Put plainly: Inhibition of human PD-1/PD-L1 interaction overexpressed in human HEK293T cells by flow cytometry analysis. The series is classed as cell-based.
T1 sequence (Q15116 whole entry): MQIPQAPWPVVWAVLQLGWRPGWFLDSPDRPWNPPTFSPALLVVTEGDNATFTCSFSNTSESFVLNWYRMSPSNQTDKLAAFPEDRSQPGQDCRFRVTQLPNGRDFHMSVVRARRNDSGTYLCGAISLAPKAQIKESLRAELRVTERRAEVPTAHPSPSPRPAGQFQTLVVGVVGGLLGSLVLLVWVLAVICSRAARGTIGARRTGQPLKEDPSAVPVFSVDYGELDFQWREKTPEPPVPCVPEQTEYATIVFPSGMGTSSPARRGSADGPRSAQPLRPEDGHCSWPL
T1 sequence (Q9NZQ7 whole entry): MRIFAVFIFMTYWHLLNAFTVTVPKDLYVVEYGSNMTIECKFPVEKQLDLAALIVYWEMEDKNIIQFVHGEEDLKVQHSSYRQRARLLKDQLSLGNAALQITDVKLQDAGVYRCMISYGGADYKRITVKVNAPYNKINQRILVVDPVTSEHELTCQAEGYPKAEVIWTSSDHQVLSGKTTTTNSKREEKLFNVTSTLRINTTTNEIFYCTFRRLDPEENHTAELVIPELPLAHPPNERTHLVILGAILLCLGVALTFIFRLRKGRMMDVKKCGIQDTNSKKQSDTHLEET
Series [10] in a line: Observed clearance in CD-1 mouse at 5 mg/kg, iv measured upto 24 hrs by UPLC analysis. The series is classed as ADME, organism-based. The conditions noted are these: in vivo.
Series [11] deals with RKO. Put plainly: Downregulation of human PD-L1 expressed in RKO cells incubated for 48 hrs. Format: functional, cell-based.
Series [12] in a line: Toxicity in C57BL/6 mouse implanted with mouse B16-F10 cells assessed as weight loss at 25 mg/kg, ip qd administered for 6 days measured after 7 days relative to control. Format: organism-based. The conditions noted are these: in vivo, 168 h, time 7 day.
Series [13] deals with CT26. Put plainly: Antitumor activity against mouse CT26 cells xenografted Balb/c mouse assessed as granzyme B+ CD8+ T cell count at 25 mg/kg, ip qd administered for 10 days measured every 2 days for 12 days (reference value: 4.31 +/- 2.35%). The series is classed as functional. The conditions noted are these: time 12 day.
Series [14] is described as follows: Half life in CD-1 mouse at 5 mg/kg, iv measured upto 24 hrs by UPLC analysis. Format: ADME, organism-based. The conditions noted are these: in vivo.
Series [15] in a line: Tmax in CD-1 mouse at 10 mg/kg, ig measured upto 24 hrs by UPLC analysis. The series is classed as ADME, organism-based. The conditions noted are these: in vivo, po.
Series [16] can be described thus: Toxicity in C57BL/6 mouse implanted with mouse B16-F10 cells assessed as weight loss at 5 mg/kg, it qd administered for 6 days measured after 7 days relative to control. Format: organism-based. The conditions noted are these: in vivo, other, 168 h, time 7 day.
Series [17] concerns B16-F10. Put plainly: Antitumor activity against mouse B16-F10 cells implanted in C57BL/6 mouse assessed as tumor growth inhibition at 25 mg/kg, ip qd for 6 days and measured once a day for 7 days relative to control. The series is classed as functional. The conditions noted are these: B16-F10, 168 h, time 7 day, read-out: TGI.
Series [18] concerns the target T1, Programmed cell death protein 1/Programmed cell death 1 ligand 1. Nature of the series: Inhibition of PD-1/PD-L1 (unknown origin) interaction incubated for 15 mins by HTRF assay. Format: protein-complex assay.
The nature of series [19]: Half life in CD-1 mouse at 10 mg/kg, ig measured upto 24 hrs by UPLC analysis. The series is classed as ADME, organism-based. The conditions noted are these: in vivo, po.
Series [20] can be described thus: AUClast in CD-1 mouse at 5 mg/kg, iv measured upto 24 hrs by UPLC analysis. The series is classed as ADME, organism-based. Set-up: dose 5 mg/kg, time < 24 hrs, route iv. The conditions noted are these: in vivo.
Series [21] can be described thus: Observed MRT infinity in CD-1 mouse at 5 mg/kg, iv measured upto 24 hrs by UPLC analysis. The series is classed as ADME, organism-based. The conditions noted are these: in vivo.
Series [22] can be described thus: Volume of distribution at steady state in CD-1 mouse at 5 mg/kg, iv measured upto 24 hrs by UPLC analysis. The series is classed as ADME, organism-based. The conditions noted are these: in vivo, read-out: Vdss.
Series [23] in a line: Observed MRT infinity in CD-1 mouse at 10 mg/kg, ig measured upto 24 hrs by UPLC analysis. The series is classed as ADME, organism-based. The conditions noted are these: in vivo, po.
The test system of series [24] is CT26. Put plainly: Downregulation of BET1 homologue in Balb/c mouse tumor implanted with mouse CT26 cells by LC/MS analysis. The series is classed as functional, cell-based.
Series [25] has as its system B16-F10. Put plainly: Antitumor activity against mouse B16-F10 cells implanted in C57BL/6 mouse assessed as tumor growth inhibition at 5 mg/kg, it qd for 6 days and measured once a day for 7 days relative to control. Format: functional. The conditions noted are these: B16-F10, 168 h, time 7 day, read-out: TGI.
The subject of series [26] is B16-F10. Put plainly: Antitumor activity against mouse B16-F10 cells implanted in C57BL/6 mouse assessed as tumor growth inhibition at 100 mg/kg, po qd for 6 days and measured once a day for 7 days relative to control. The series is classed as functional. The conditions noted are these: B16-F10, 168 h, time 7 day, read-out: TGI.
In series [27] the test system is CT26. Nature of the series: Antitumor activity against mouse CT26 cells xenografted Balb/c mouse assessed as increase CD3+ CD8+ T cell count at 25 mg/kg, ip qd administered for 10 days measured every 2 days for 12 days (reference value: 5.77 +/- 0.32%). Format: functional. The conditions noted are these: time 12 day.
Series [28] has as its system CT26. Put plainly: Downregulation of mitogen-activated protein kinase 15 in mouse CT26 cells implanted in Balb/c mouse tumor by LC/MS analysis. Format: functional, cell-based.
The test system of series [29] is CT26. Put plainly: Downregulation of STING ER exit protein in Balb/c mouse tumor implanted with mouse CT26 cells by LC/MS analysis. The series is classed as functional, cell-based.
In series [30] the test system is CT26. Nature of the series: Antitumor activity against mouse CT26 cells implanted Balb/c mouse assessed as increase CD4+ cell count at 25 mg/kg, ip qd administered for 10 days measured every 2 days for 12 days (reference value: 13.74 +/- 0.51%). Format: functional. The conditions noted are these: time 12 day.
Series [31] can be described thus: Toxicity in C57BL/6 mouse implanted with mouse B16-F10 cells assessed as weight loss at 100 mg/kg, po qd administered for 6 days measured after 7 days relative to control. The series is classed as organism-based. The conditions noted are these: in vivo, 168 h, time 7 day.
Series [32] deals with CT26. Put plainly: Antitumor activity against mouse CT26 cells implanted in Balb/c mouse assessed as tumor growth inhibition at 25 mg/kg, ip qd administered for 10 days measured every 2 days for 12 days relative to control. The series is classed as functional. The conditions noted are these: CT26, 288 h, time 12 day, read-out: TGI.
In series [33] the test system is Jurkat. Put plainly: Cytotoxicity against human Jurkat T cells assessed as cell growth inhibition upto 30 uM incubated for 48 hrs by MTT assay. The series is classed as toxicity, cell-based.
Series [34] can be described thus: Toxicity in BALB/c mouse implanted with mouse CT26 cells assessed as weight loss at 25 mg/kg, ip qd administered for 10 days measured every 2 days for 12 days relative to control. Format: organism-based. The conditions noted are these: in vivo, 288 h, time 12 day.
Series [35] concerns CT26. Put plainly: Downregulation of mouse PD-L1 expressed in CT26 cells incubated for 48 hrs. Format: functional, cell-based.
Series [36] relates to CT26. Put plainly: Downregulation of immediate early response 3-interacting protein 1 in Balb/c mouse tumor implanted with mouse CT26 cells tumor by LC/MS analysis. The series is classed as functional, cell-based.
The target in series [37] is Programmed cell death 1 ligand 1 (Homo sapiens) (UniProt Q9NZQ7). Nature of the series: Induction of human PD-L1 degradation expressed in MC38 cells at 1 to 10 uM cocultured for 72 hrs by Western blotting analysis. The series is classed as cell-based. The conditions noted are these: dose 1-10 µM.
The nature of series [38]: Observed AUC infinity in CD-1 mouse at 5 mg/kg, iv measured upto 24 hrs by UPLC analysis. The series is classed as ADME, organism-based. The arrangement: dose 5 mg/kg, time < 24 hrs, route iv. The conditions noted are these: CD-1, mouse, in vivo.
Series [39] in a line: Cmax in CD-1 mouse at 10 mg/kg, ig measured upto 24 hrs by UPLC analysis. The series is classed as ADME, organism-based. Set-up: dose 10 mg/kg, time < 24 hrs, route ig. The conditions noted are these: in vivo, po.
The target of series [40] is Programmed cell death protein 1/Programmed cell death 1 ligand 1 (Homo sapiens) (UniProt Q15116+Q9NZQ7). The conditions noted are these: dose 300.0 nM, time 15.0 min.
For the next series, the system named is MC-38. Nature of the series: Cytotoxicity against mouse MC38 cells assessed as cell death at 10 uM for 48 hrs by MTT assay. Format: toxicity, cell-based. The conditions noted are these: mc-38, 48 h.
For series [41], the system named is RKO. Nature of the series: Cytotoxicity against human RKO cells over expressing human PD-L1 at above 10 uM. Format: toxicity, cell-based.

Active and inactive are the calls of the source. The rule behind the calls is not given here.

Chain of Programmed cell death 1 ligand 1 (Homo sapiens) (Q9NZQ7 whole entry): as above

Take `COc1nc(OCc2cccc(-c3ccccc3)c2C)ccc1CNCCO[C@H]1O[C@H](CO)[C@@H](O)[C@H](O)[C@@H]1O`: the inhibition result in series [1] is “Active”. For the same compound, in series [2], the outcome was Active. Also, the Activity result in the series with RKO [3] is “Non-Toxic”.
`COc1cc(OCc2cccc(-c3ccccc3)c2C)cc(OC)c1CNCCO` registered a logD at 1 h in [4] of 2.85. For the same compound, in the series on Jurkat [5], the concentration for half-maximal inhibition (IC50) turned out to be 5.7 µM. Moreover, in [6], the viability at 48 h, 10 µM came to 0%.
With `COc1nc(OCc2cccc(-c3ccccc3)c2C)ccc1CNCCO[C@@H]1O[C@H](CO)[C@@H](O)[C@H](O)[C@H]1NC(C)=O`, the “fold change (FC)” value in series [7] is given as 2.57. The exposure AUC(0-t) at 24 h in [8] worked out at 337 ng·h/mL; in series [20] it was 2160 ng·h/mL. The compound further displayed a logD at 1 h in series [4] of 2.09. In addition, the half-maximal inhibitory concentration (IC50) stood at 0.0494 µM in series [9] and 0.0292 µM in series [18]. This compound registered a clearance in series [10] of 38.6 mL/min/kg. Moreover, the outcome in the series with RKO [11], in the series with CT26 [24], with CT26 [28], in the series with CT26 [29], in the series on CT26 [35] and with CT26 [36] was Active. Further, in series [37], the outcome was Active. Moreover, the Activity entry in series [12] is reported as “Non-Toxic”; in the series with CT26 [13] it was 5.06%; in series [16] it was “Non-Toxic”; in the series on CT26 [27], 11.47%; in the series on CT26 [30] it was 20.53%; in the series on RKO [3] it was “Non-Toxic”. The Activity result (in series [31]; in the series on Jurkat [33]; in series [34]) was “Non-Toxic” throughout. Moreover, the inhibition result in [1] is “Active”. In addition, the half-life is 6.36 h in series [14] and 7.02 h in series [19]. Besides, the time to peak (Tmax) in series [15] stood at 0.5 h. In addition, the inhibition in vivo at 25 mg/kg is 41.1% with B16-F10 [17] and 77.3% in the series with CT26 [32]. Moreover, the mean residence time MRT inf in [21] was determined as 3.58 h; in series [23] it was 10.2 h. Further, the Vd in series [22] stood at 6.88 L/kg. Moreover, in the series on B16-F10 [25], the inhibition in vivo at 5 mg/kg came out at 41.1%. Moreover, in the series on B16-F10 [26], the inhibition in vivo at 100 mg/kg was found to be 41.1%. In series [38], the AUC(0-inf) turned out to be 2230 ng·h/mL. In addition, the peak concentration (Cmax) in series [39] was found to be 31.7 ng/mL.
In the case of `COc1ccc(CNCCO)cc1OCc1cccc(-c2ccccc2)c1C`, the IC50 in the series with Jurkat [5] was 17.9 µM. This compound also displayed an inhibition in [40] of 26.9%.
Consider `Cc1cc(OCc2cccc(-c3ccccc3)c2C)cc(C)c1CNCCO`, for which the IC50 in the series on Jurkat [5] was 4.1 µM. In [40], this compound yielded an inhibition of 62.8%.
Consider `Cc1c(COc2cc(CNCCO)ccc2Cl)cccc1-c1ccccc1`, for which the IC50 in the series with Jurkat [5] stood at 7.8 µM. For the same compound, the inhibition in series [40] came to 51.4%.
In turn, `COc1nc(OCc2cccc(-c3ccccc3)c2C)ccc1CNCCNC(C)=O` showed a log distribution coefficient (logD) at 1 h in [4] of 3.33. Also, the concentration for half-maximal inhibition (IC50) with Jurkat [5] is 2.6 µM. For the same compound, the Activity result (in the series on MC-38; in series [34]; in the series with RKO [41]) was “Toxic” in each case.
